Reference: paper PMC12263422, “Cryo-EM structure of the human THIK-1 K2P K^+ channel reveals a lower Y gate regulated by lipids and anesthetics” (Nature Structural & Molecular Biology, 2025)
“And” between values parts separate entries of the source, which are not always exact repeats. Equal values may be shown once.

Tests used:
THIK-1 G331x = target: T1, THIK-1 G331x (Homo sapiens, UniProt Q9HB14); assay: Inside-out excised patch recordings, oocytes, THIK-1 truncated at CASP8 cleavage site (G331x); format: cell-based
T1 construct: expressed in transfected cells; host or cells: Xenopus oocytes (mRNA injection)
T1 sequence (Q9HB14 1-330 limits assumed): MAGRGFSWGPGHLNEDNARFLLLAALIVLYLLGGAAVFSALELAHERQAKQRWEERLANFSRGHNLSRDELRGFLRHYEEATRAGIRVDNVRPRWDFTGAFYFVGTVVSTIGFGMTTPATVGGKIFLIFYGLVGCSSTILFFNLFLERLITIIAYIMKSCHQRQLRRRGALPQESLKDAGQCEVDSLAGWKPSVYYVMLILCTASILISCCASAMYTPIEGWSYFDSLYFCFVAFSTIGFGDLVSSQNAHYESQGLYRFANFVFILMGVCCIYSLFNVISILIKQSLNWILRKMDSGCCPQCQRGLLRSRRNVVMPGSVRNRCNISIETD
Description: (§1) Human K2P13.1 THIK-1 (GenBank accession number: NM_022054) and human K2P12.1 THIK-2 (NM_022055.1) were used in this study. For functional expression studies, the respective K^+ channel subtype coding sequences were subcloned into the oocyte expression vector pSGEM or the dual-purpose expression vector pFAW[41] and verified by sequencing. All mutant channels were obtained by site-directed mutagenesis and verified by sequencing. To increase surface expression and macroscopic currents, measurements of THIK-2 channels used a mutated ER retention motif, (R11A R12A R14A R15A R16A; THIK-2*)[20]. Vector DNA was linearized with NheI or MluI, and mRNA was synthesized in vitro using the SP6 or T7 AmpliCap Max High Yield Message Maker Kit (Cellscript, USA) or HiScribe T7 ARCA mRNA Kit (New England Biolabs).
(§2) Two-electrode voltage–clamp (TEVC) studies were performed in Xenopus oocytes. All animal use conformed to the Guide for the Care and Use of Laboratory Animals (NIH Publication 85–23), and all experiments using Xenopus toads were approved by the local ethics panels. Oocytes were stored at 17 °C in ND96 recording solution composed of (in mM): 96 NaCl, 2 KCl, 1.8 CaCl2, 1 MgCl2, 5 HEPES (pH 7.5 adjusted with NaOH and HCl), supplemented with Na-pyruvate (275 mg L^–1), theophylline (90 mg L^–1) and gentamicin (50 mg L^–1). Oocytes were injected with 1 ng mRNA for WT or mutant channels, and were incubated for 24–48 h at 17 °C. Two-electrode voltage clamp recordings were then performed as previously described[42],[43]. For macroscopic patch–clamp measurements, oocytes were obtained as described above incubated at 17 °C in a solution containing (mM): 54 NaCl, 30 KCl, 2.4 NaHCO3, 0.82 MgSO4 ×7 H2O, 0.41 CaCl2, 0.33 Ca(NO3)2 ×4 H2O and 7.5 TRIS (pH 7.4 adjusted with NaOH and HCl) for 1–4 days before use. Excised patch recordings in inside-out configuration conditions were performed at room temperature. Patch pipettes were made from thick-walled borosilicate glass GB 200TF-8P (Science Products), had resistances of 0.2–0.5 MΩ (tip diameter, 10–25 µm) and filled with a pipette solution (in mM): 120 KCl, 10 HEPES and 3.6 CaCl2 (pH 7.4 adjusted with KOH and HCl). Intracellular bath solutions and compounds were applied to the cytoplasmic side of excised patches for the various K^+ channels through a gravity flow multi-barrel pipette system. The intracellular solution had the following composition (in mM): 120 KCl, 10 HEPES, 2 EGTA and 1 pyrophosphate (pH adjusted with KOH and HCl). Currents were recorded with an EPC10 amplifier (HEKA Electronics) and sampled at 10 kHz or higher, with filtering set to 3 kHz (–3 dB) or higher, as appropriate for sampling rate. For measurements of GPCR activation, whole-cell currents were recorded for THIK-1 in transiently transfected HEK-293 cells. Cells were stimulated by a ramp protocol between −100 and +60 mV (holding potential, −80 mV). The pipette solution was composed of (in mM): 140 KCl, 2 MgCl2, 1 CaCl2, 2.5 EGTA and 10 HEPES (pH 7.3 adjusted with KOH and HCl). The extracellular bath solution had the following composition (in mM): 135 NaCl, 5 KCl, 2 MgCl2, 2 CaCl2, 10 glucose and 10 HEPES pH (pH 7.3 adjusted with NaOH and HCl). Oxotremorine M (Oxo-M) was added to extracellular bath solution to obtain the final concentration. Single-channel currents were recorded with an Axopatch 200B amplifier through a Digidata 1440A digitizer (Molecular Devices). Data were filtered at 2 kHz and recorded at a 200-kHz sampling rate with the program Clampex (Molecular Devices). Pipette solution and bath solution for cell-attached recordings contained (in mM): 140 KCl, 2 MgCl2, 1 CaCl2 and 10 HEPES (pH 7.4 adjusted with KOH and HCl). For inside-out recordings, the bath solution contained (in mM): 140 KCl, 2 MgCl2, 1 CaCl2 and 10 HEPES (pH 7.2 adjusted with KOH and HCl). All experiments were conducted at room temperature. […]

THIK-1 I139A = target: T2, THIK-1 I139A (Homo sapiens, UniProt Q9HB14, I139A); assay: Inside-out excised patch recordings, oocytes, THIK-1 I139A mutant; format: cell-based; conditions: for τ of 1 mM TPenA block / τ of 1 mM TPenA release: I139A; for Normalized currents: THIK-1 I139A
T2 construct: expressed in transfected cells; host or cells: Xenopus oocytes (mRNA injection)
T2 sequence (Q9HB14 1-408 I139A): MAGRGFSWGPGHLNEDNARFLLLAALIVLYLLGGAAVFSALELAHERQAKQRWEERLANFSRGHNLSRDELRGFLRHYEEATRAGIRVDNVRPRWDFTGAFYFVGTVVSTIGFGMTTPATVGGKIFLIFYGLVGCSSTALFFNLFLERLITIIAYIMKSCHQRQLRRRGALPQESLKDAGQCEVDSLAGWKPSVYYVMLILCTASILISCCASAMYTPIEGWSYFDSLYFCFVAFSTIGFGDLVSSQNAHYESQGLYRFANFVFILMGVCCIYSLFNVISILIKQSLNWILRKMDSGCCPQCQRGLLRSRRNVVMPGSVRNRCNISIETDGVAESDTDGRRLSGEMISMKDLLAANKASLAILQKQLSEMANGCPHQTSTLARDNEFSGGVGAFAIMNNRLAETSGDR
Description: as §1, §2

Q: Which Normalized currents (THIK-1 G331x; 0.1 µM TPenA) does the source give for CCCCC[N+](CCCCC)(CCCCC)CCCCC [TPenA, tetrapentylammonium] here?
A: Its Normalized currents is 1.00.

Q: And the Normalized currents (THIK-1 G331x; 1 µM TPenA)?
A: Its Normalized currents is 1.00.

Q: What about the Normalized currents (THIK-1 G331x; 10 µM TPenA) of the same compound?
A: The Normalized currents was 0.89.

Q: And the Normalized currents (THIK-1 G331x; 100 µM TPenA)?
A: The Normalized currents was 0.40.

Q: What about the Normalized currents (THIK-1 G331x; 1000 µM TPenA) of the same compound?
A: The Normalized currents was 0.09.

Q: What about the Normalized currents (THIK-1 G331x; 2000 µM TPenA) of the same compound?
A: Its Normalized currents is 0.05.

Q: What about the “τ of 1 mM TPenA block” value (THIK-1 I139A; individual recordings) of the same compound?
A: Its value is 0.150 s and 0.087 s and 0.338 s and 0.121 s and 0.235 s and 0.061 s and 0.088 s and 0.065 s and 0.063 s and 0.057 s and 0.086 s and 0.068 s and 0.117 s and 0.145 s and 0.215 s and 0.129 s and 0.101 s and 0.147 s and 0.113 s and 0.270 s and 0.151 s and 0.198 s and 0.133 s.

Q: What about the “τ of 1 mM TPenA release” value (THIK-1 I139A; individual recordings) of the same compound?
A: Its value is 1.320 s and 0.719 s and 0.852 s and 0.882 s and 0.634 s and 0.828 s and 0.460 s and 0.897 s and 0.583 s and 1.759 s and 0.311 s and 0.642 s and 0.558 s and 0.489 s and 0.435 s and 0.476 s and 0.409 s and 0.565 s and 0.635 s and 0.683 s and 0.647 s and 0.518 s and 0.501 s.

Q: What about the “τ of 1 mM TPenA block” value (THIK-1 I139A; mean) of the same compound?
A: The value was 0.13 s.

Q: And the “τ of 1 mM TPenA release” value (THIK-1 I139A; mean)?
A: The value was 0.68 s.

Q: And the Normalized currents (THIK-1 I139A; TPenA 0.1 µM)?
A: The Normalized currents was 1.00.

Q: And the Normalized currents (THIK-1 I139A; TPenA 1 µM)?
A: The Normalized currents was 0.93.

Q: What about the Normalized currents (THIK-1 I139A; TPenA 4 µM) of the same compound?
A: Its Normalized currents is 0.83.

Q: What about the Normalized currents (THIK-1 I139A; TPenA 15.6 µM) of the same compound?
A: Its Normalized currents is 0.67.

Q: What about the Normalized currents (THIK-1 I139A; TPenA 62.5 µM) of the same compound?
A: The Normalized currents was 0.44.

Q: And the Normalized currents (THIK-1 I139A; TPenA 250 µM)?
A: The Normalized currents was 0.22.

Q: What about the Normalized currents (THIK-1 I139A; TPenA 1000 µM) of the same compound?
A: Its Normalized currents is 0.11.

Q: And the Normalized currents (THIK-1 I139A; TPenA 4000 µM)?
A: Its Normalized currents is 0.08.
